Results reported in the supplement of paper PMC10307832.

Key:
Assay in all cases: relative viability (nuclei count vs DMSO), 5 days (fraction); higher = more cells survive
Pazopanib + Alpelisib = compound: Cc1ccc(Nc2nccc(N(C)c3ccc4c(C)n(C)nc4c3)n2)cc1S(N)(=O)=O [Pazopanib] + Cc1nc(NC(=O)N2CCC[C@H]2C(N)=O)sc1-c1ccnc(C(C)(C)C(F)(F)F)c1 [Alpelisib] (partner 2 µM)
Method in brief: (§1)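 Medians of duplicate plates are given as relative viability. That measure is the nuclei count in treated wells divided by the count in vehicle wells. Counts were taken on 4× images of lung cancer cell lines in 1536-well plates, 5 days after pin-tool dosing the day after seeding with one drug alone or a fixed anchor-drug dose plus five library-drug doses (not always all listed) in √10 steps.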

Ponatinib + OSI-027 = compound: Cc1ccc(C(=O)Nc2ccc(CN3CCN(C)CC3)c(C(F)(F)F)c2)cc1C#Cc1cnc2cccnn12 [Ponatinib] + COc1cccc2cc(-c3nc([C@H]4CC[C@H](C(=O)O)CC4)n4ncnc(N)c34)[nH]c12 [OSI-027] (partner 0.5 µM)
Method in brief: as §1

Ponatinib + Tozasertib = compound: Cc1ccc(C(=O)Nc2ccc(CN3CCN(C)CC3)c(C(F)(F)F)c2)cc1C#Cc1cnc2cccnn12 [Ponatinib] + Cc1cc(Nc2cc(N3CCN(C)CC3)nc(Sc3ccc(NC(=O)C4CC4)cc3)n2)n[nH]1 [Tozasertib] (partner 0.1 µM)
Method in brief: as §1

Ponatinib + AZD7762 = compound: Cc1ccc(C(=O)Nc2ccc(CN3CCN(C)CC3)c(C(F)(F)F)c2)cc1C#Cc1cnc2cccnn12 [Ponatinib] + NC(=O)Nc1cc(-c2cccc(F)c2)sc1C(=O)N[C@H]1CCCNC1 [AZD7762] (partner 0.2 µM)
Method in brief: as §1

Row | Cell Line | relative viability (Pazopanib + Alpelisib; first compound 0.01 µM) | relative viability (Pazopanib + Alpelisib; first compound 0.03162 µM) | relative viability (Pazopanib + Alpelisib; first compound 0.1 µM) | relative viability (Pazopanib + Alpelisib; first compound 0.3162 µM) | relative viability (Pazopanib + Alpelisib; first compound 1 µM) | relative viability (Ponatinib + OSI-027; first compound 0.002 µM) | relative viability (Ponatinib + OSI-027; first compound 0.006325 µM) | relative viability (Ponatinib + OSI-027; first compound 0.06325 µM) | relative viability (Ponatinib + OSI-027; first compound 0.2 µM) | relative viability (Ponatinib + Tozasertib; first compound 0.002 µM) | relative viability (Ponatinib + Tozasertib; first compound 0.006325 µM) | relative viability (Ponatinib + Tozasertib; first compound 0.06325 µM) | relative viability (Ponatinib + Tozasertib; first compound 0.2 µM) | relative viability (Ponatinib + AZD7762; first compound 0.002 µM) | relative viability (Ponatinib + AZD7762; first compound 0.006325 µM) | relative viability (Ponatinib + AZD7762; first compound 0.06325 µM) | relative viability (Ponatinib + AZD7762; first compound 0.2 µM)
1 | NCI-H838 | 1.01 | 1.02 | 1.07 | 1.08 | 1.11 | 0.416 | 0.416 | 0.482 | 0.349 | 0.275 | 0.271 | 0.286 | 0.256 | 0.899 | 0.935 | 0.95 | 0.774
2 | NCI-H2087 | 1.08 | 1.14 | 1.22 | 0.979 | 1.06 | 0.667 | 0.525 | 0.593 | 0.563 | 0.259 | 0.237 | 0.21 | 0.155 | 1.05 | 1.07 | 1.43 | 1.19
3 | BEN | 0.845 | 1.04 | 1.1 | 1.02 | 0.988 | 0.3 | 0.305 | 0.312 | 0.332 | 0.544 | 0.52 | 0.486 | 0.533 | 0.494 | 0.625 | 0.589 | 0.774
4 | LCLC-103H | 0.782 | 0.823 | 1.03 | 0.973 | 1.06 | 0.43 | 0.382 | 0.453 | 0.419 | 0.527 | 0.534 | 0.522 | 0.404 | 0.699 | 0.809 | 0.734 | 0.753
5 | EKVX | 0.726 | 0.887 | 0.923 | 0.896 | 1.03 | 0.66 | 0.729 | 0.829 | 0.706 | 0.386 | 0.45 | 0.375 | 0.314 | 0.7 | 0.766 | 0.673 | 0.606
6 | LXF-289 | 1.06 | 1.04 | 1.02 | 1.03 | 1.09 | 0.735 | 0.808 | 0.916 | 0.714 | 0.205 | 0.262 | 0.21 | 0.148 | 1.03 | 1.13 | 1.19 | 1.1
7 | ABC-1 | 0.859 | 1.1 | 0.984 | 1.1 | 1.03 | 0.394 | 0.513 | 0.47 | 0.393 | 0.213 | 0.147 | 0.141 | 0.204 | 0.828 | 0.878 | 0.755 | 0.663
8 | NCI-H2085 | 0.964 | 0.974 | 1.02 | 0.995 | 1.05 | 0.624 | 0.704 | 0.753 | 0.727 | 0.722 | 0.849 | 0.662 | 0.576 | 0.962 | 0.944 | 0.909 | 0.814
9 | NCI-H1944 | 0.751 | 0.838 | 0.839 | 0.863 | 0.982 | 0.387 | 0.43 | 0.44 | 0.394 | 0.24 | 0.246 | 0.247 | 0.255 | 0.454 | 0.489 | 0.543 | 0.664
10 | LC-2-ad | 0.844 | 0.884 | 0.916 | 0.866 | 0.891 | 0.673 | 0.732 | 0.775 | 0.678 | 0.458 | 0.455 | 0.431 | 0.397 | 0.833 | 0.858 | 0.977 | 0.872
11 | NCI-H1355 | – | 0.765 | 0.99 | 0.871 | 0.849 | 0.409 | 0.48 | 0.43 | 0.385 | 0.566 | 0.542 | 0.582 | 0.455 | 0.696 | 0.742 | 0.829 | 0.717
12 | H3255 | 0.612 | 0.743 | 0.833 | 0.695 | 0.741 | 0.666 | 0.566 | 0.613 | 0.526 | 0.606 | 0.638 | 0.561 | 0.459 | 0.817 | 0.858 | 1.05 | 0.95
13 | NCI-H1993 | 0.67 | 0.7 | 0.759 | 0.703 | 0.733 | 0.516 | 0.495 | 0.469 | 0.567 | 0.639 | 0.635 | 0.582 | 0.555 | 0.65 | 0.86 | 0.773 | 0.689
14 | NCI-H1734 | 0.632 | 0.702 | 0.743 | 0.65 | 0.769 | 0.58 | 0.589 | 0.521 | 0.449 | 0.267 | 0.293 | 0.217 | 0.26 | 0.514 | 0.516 | 0.418 | 0.461
15 | HOP-62 | 0.68 | 1 | – | 1.23 | 1.07 | 0.727 | 0.759 | 0.883 | 0.72 | 0.303 | 0.348 | 0.317 | 0.33 | 0.643 | 0.417 | 0.831 | 0.439
16 | LOU-NH91 | 0.754 | 0.729 | 0.774 | 0.816 | 0.746 | 0.675 | 0.762 | 0.746 | 0.741 | 0.65 | 0.668 | 0.71 | 0.595 | 0.744 | 0.779 | 0.801 | 0.682
17 | PC-3 [JPC-3] | 0.965 | 1.04 | 1.19 | 0.991 | 0.956 | 0.745 | 0.76 | 0.754 | 0.69 | 0.851 | 0.822 | 0.951 | 0.824 | – | 0.901 | 1 | 0.873
